In patent US11827646B2, “Compounds for treating spinal muscular atrophy” (Hoffmann-La Roche Inc., priority 2014, dated 2023):

Experiments:
[1] = tested on: full length SMN2 minigene mRNA (HEK293H cells stably transfected with SMN2-A minigene); assay: SMN2 minigene mRNA splicing RT-qPCR assay in cultured cells; type: cell-based; conditions: Homo sapiens, HEK293-H, 24 hours, 7-point concentration curve, 1.5-fold increase relative to vehicle, read-out: EC1.5x minigene (EC1.5x concentration for production of full length SMN2 minigene mRNA)
Source text: The term “EC1.5x concentration for production of full length SMN2 minigene mRNA” (or “EC1.5x minigene”) is defined as that concentration of test compound that 1 s effective m increasing the amount of full length SMN2 minigene mRNA to a level 1.5-fold greater relative to that in vehicle-treated cells.
The reverse transcription-quantitative PCR-based (RT-qPCR) assay is used to quantify the level of the full length SMN2 minigene (referred to herein by the term “FL SMN2mini”) mRNA containing SMN2 exon 7 in a HEK293H cell line stably transfected with said minigene and treated with a test compound. Materials used and respective sources are listed below in Table 1.
The SMN2-A minigene construct was prepared as described in International Patent Application WO2009/151546A1 page 145 paragraph [00400] to page 147 paragraph [00412](incl. FIG. 1 and FIG. 3 therein).
HEK293H cells stably transfected with the SMN2-A minigene construct (10,000 cells/well) are seeded in 200 μL of cell culture medium (DMEM plus 10% FBS, with 200 μg/mL hygromycin) in 96-well flat-bottom plates and the plate is immediately swirled to ensure proper dispersal of cells and the formation of an even monolayer of cells. Cells are allowed to attach for 6 hours. Test compounds are serially diluted 3.16-fold in 100% DMSO to generate a 7-point concentration curve. A solution of test compound (1 μL, 200× in DMSO) is added to each cell-containing well and the plate is incubated for 24 hours in a cell culture incubator (37° C., 5% CO2, 100% relative humidity). 2 replicates are prepared for each test compound concentration. The cells are then lysed in the Cells-To-Ct lysis buffer and the lysate is stored at −80° C.
Full length SMN2-A minigene and GAPDH mRNA are quantified using the primers and probes referenced in Table 2. Primer SMN Forward A (SEQ ID NO.1) hybridizes to a nucleotide sequence in exon 7 (nucleotide 22 to nucleotide 40), primer SMN Reverse A (SEQ ID NO.2) hybridizes to a nucleotide sequence in the coding sequence of Firefly luciferase, SMN Probe A (SEQ ID NO.3) hybridizes to a nucleotide sequence in exon 7 (nucleotide 50 to nucleotide 54) and exon 8 (nucleotide 1 to nucleotide 21). The combination of these three oligonucleotides detects only SMN1 or SMN2 minigenes (RT-qPCR) and will not detect endogenous SMN1 or SMN2 genes.
The SMN forward and reverse primers are used at final concentrations of 0.4 μM. The SMN probe is used at a final concentration of 0.15 μM. The GAPDH primers are used at final concentrations of 0.2 μM and the probe at 0.15 μM.
The SMN2-minigene GAPDH mix (15 μL total volume) is prepared by combining 7.5 μL of 2×RT-PCR buffer, 0.4 μL of 25×RT-PCR enzyme mix, 0.75 μL of 20×GAPDH primer-probe mix, 4.0075 μL of water, 2 μL of 10-fold diluted cell lysate, 0.06 μL of 100 µM SMN forward primer, 0.06 μL of 100 μM SMN reverse primer, and 0.225 μL of 100 μM SMN probe.
PCR is carried out at the following temperatures for the indicated time: Step 1: 48° C. (15 min); Step 2: 95° C. (10 min); Step 3: 95° C. (15 sec); Step 4: 60° C. (1 min); then repeat Steps 3 and 4 for a total of 40 cycles.
Each reaction mixture contains both SMN2-A minigene and GAPDH primers/probe sets (multiplex design), allowing simultaneous measurement of the levels of two transcripts.
The increase in the abundance of the FL SMN2mini mRNA relative to that in cells treated with vehicle control is determined from real-time PCR data using a modified ΔΔCt method (as described in Livak and Schmittgen, Methods, 2001, 25:402-8). The amplification efficiency E is calculated from the slope of the amplification curve for FL SMN2mini and GAPDH individually. The abundance of FL SMN2mini and GAPDH mRNA are then calculated as (1+E)^−Ct, where Ct is the threshold value for each amplicon. The abundance of FL SMN2mini mRNA is normalized to GAPDH mRNA abundance. […]

[2] = tested on: SMN protein in SMA patient fibroblast cells (GM03813); assay: SMN protein assay in cultured cells (SMN HTRF); type: cell-based; conditions: Homo sapiens, SMA Type 1 patient fibroblasts, 48 hours; for EC (1.5-fold): 7-point concentration curve, 1.5 times SMN protein vs vehicle, read-out: EC1.5x SMN protein (EC1.5x concentration for SMN protein expression); for maximal fold induction: fold increase relative to vehicle control, read-out: max. fold increase of SMN protein
Source text: The term “EC1.5x concentration for SMN protein expression” (or “EC1.5x SMN protein”) is defined as that concentration of test compound that is effective in producing 1.5 times the amount of SMN protein in an SMA patient fibroblast cell compared to the amount produced from the vehicle control.
The SMN HTRF (homogeneous time resolved fluorescence) assay is used to quantify the level of SMN protein in SMA patient fibroblast cells treated with test compounds. Materials used and respective sources are listed below in Table 4.
Cells are thawed and cultured in DMEM-10% FBS for 72 hours. Cells are trypsinized, counted and re-suspended to a concentration of 25,000 cells/mL in DMEM-10% FBS. The cell suspensions are plated at 5,000 cells per well in a 96 well microtiter plate and incubated for 3 to […]. Test compounds are serially diluted 3.16-fold in 100% DMSO to generate a 7-point concentration curve. 1 μL of test compound solution is transferred to cell-containing wells and cells are incubated for 48 hours in a cell culture incubator (37° C., 5% CO2, […]). Triplicate samples are set up for each test compound concentration. After 48 hours, the supernatant is removed from the wells and 25 μL of the RIPA lysis buffer, containing protease inhibitors, is added to the wells and incubated with shaking at room temperature for 1 hour. 25 μL of the diluent is added and then 35 μL of the resulting lysate is transferred to a 384-well plate, where each well contains 5 μL of the antibody solution (1:100 dilution of anti-SMN d2 and anti-SMN kryptate in SMN reconstitution buffer). The plate is centrifuged for 1 minute to bring the solution to the bottom of the wells, then incubated overnight at room temperature. Fluorescence for each well of the plate at 665 nm and 620 nm is measured on an EnVision multilabel plate reader (Perkin-Elmer).
The normalized fluorescence signal is calculated for each sample, Blank and vehicle control well by dividing the signal at 665 nm by the signal at 620 nm. Normalizing the signal accounts for possible fluorescence quenching due to the matrix effect of the lysate. The ΔF value (a measurement of SMN protein abundance as a percent value) for each sample well is calculated by subtracting the normalized average fluorescence for the Blank control wells from the normalized fluorescence for each sample well, then dividing this difference by the normalized average fluorescence for the Blank control wells and multiplying the resulting value by 100. The ΔF value for each sample well represents the SMN protein abundance from test compound-treated samples. The ΔF value for each sample well is divided by the ΔF value for the vehicle control wells to calculate the fold increase in SMN protein abundance relative to the vehicle control. Table 5 provides EC1.5x concentrations for SMN protein expression that was obtained from the 7-point concentration data generated according to the above procedure for particular compounds of the present invention.
Table 6 provides the maximum fold increase of SMN protein that was obtained from the 7-point concentration data generated according to the above procedure for particular compounds of the present invention

| SMILES | EC (1.5-fold) [1] [µM] | EC (1.5-fold) [2] [µM] | maximal fold induction [2] |
| --- | --- | --- | --- |
| Cc1cn2nc(-c3cc(=O)n4cc(N5CCNC6(CC6)C5)cc(C)c4n3)cc(C)c2n1 [Example 28, 7-(4,7-diazaspiro[2.5]octan-7-yl)-2-(2,8-dimethylimidazo[1,2-b]pyridazin-6-yl)-9-methyl-pyrido[1,2-a]pyrimidin-4-one] | 0.005 | 0.0497 | 1.72 |
| Cc1cn2nc(-c3cc(=O)n4cc(N5C[C@H](C)N[C@@H](C)C5)ccc4n3)cc(C)c2n1 [Example 29, 2-(2,8-dimethylimidazo[1,2-b]pyridazin-6-yl)-7-[(3S,5S)-3,5-dimethylpiperazin-1-yl]pyrido[1,2-a]pyrimidin-4-one] | 0.0003 | 0.0021 | 1.81 |
| Cc1cn2nc(-c3cc(=O)n4cc(N5CC[C@H](N6CCCC6)C5)ccc4n3)cc(C)c2n1 [Example 30, 2-(2,8-dimethylimidazo[1,2-b]pyridazin-6-yl)-7-[(3S)-3-pyrrolidin-1-ylpyrrolidin-1-yl]pyrido[1,2-a]pyrimidin-4-one] | 0.003 | 0.0136 | 1.84 |
| Cc1cn2nc(-c3cc(=O)n4cc(N5CC[C@H](N6CCCC6)C5)ccc4n3)ccc2n1 [Example 31, 2-(2-methylimidazo[1,2-b]pyridazin-6-yl)-7-[(3S)-3-pyrrolidin-1-ylpyrrolidin-1-yl]pyrido[1,2-a]pyrimidin-4-one] | 0.0067 | 0.0277 | 1.65 |
| Cc1cn2nc(-c3cc(=O)n4cc(N5C[C@H](C)N[C@@H](C)C5)ccc4n3)ccc2n1 [Example 32, 7-[(3S,5S)-3,5-dimethylpiperazin-1-yl]-2-(2-methylimidazo[1,2-b]pyridazin-6-yl)pyrido[1,2-a]pyrimidin-4-one] | 0.0016 | 0.004 | 1.88 |
| Cc1cn2nc(-c3cc(=O)n4cc(N5CCN[C@@H](C)C5)cc(C)c4n3)ccc2n1 [Example 33, 9-methyl-2-(2-methylimidazo[1,2-b]pyridazin-6-yl)-7-[(3S)-3-methylpiperazin-1-yl]pyrido[1,2-a]pyrimidin-4-one] | 0.0005 | 0.004 | 1.82 |
| Cc1cn2nc(-c3cc(=O)n4cc(N5CCN[C@H](C)C5)cc(C)c4n3)ccc2n1 [Example 34, 9-methyl-2-(2-methylimidazo[1,2-b]pyridazin-6-yl)-7-[(3R)-3-methylpiperazin-1-yl]pyrido[1,2-a]pyrimidin-4-one] | 0.0009 | 0.0044 | 1.89 |
| Cc1cn2nc(-c3cc(=O)n4cc(N5C[C@@H](C)N[C@@H](C)C5)cc(C)c4n3)ccc2n1 [Example 35, 7-[(3R,5S)-3,5-dimethylpiperazin-1-yl]-9-methyl-2-(2-methylimidazo[1,2-b]pyridazin-6-yl)pyrido[1,2-a]pyrimidin-4-one] | 0.0047 | 0.0195 | 1.79 |
| Cc1cn2nc(-c3cc(=O)n4cc(N5CCNC(C)(C)C5)cc(C)c4n3)ccc2n1 [Example 36, 7-(3,3-dimethylpiperazin-1-yl)-9-methyl-2-(2-methylimidazo[1,2-b]pyridazin-6-yl)pyrido[1,2-a]pyrimidin-4-one] | 0.005 | 0.0344 | 1.77 |
| Cc1cn2nc(-c3cc(=O)n4cc(N5CCNC6(CC6)C5)cc(C)c4n3)ccc2n1 [Example 37, 7-(4,7-diazaspiro[2.5]octan-7-yl)-9-methyl-2-(2-methylimidazo[1,2-b]pyridazin-6-yl)pyrido[1,2-a]pyrimidin-4-one] | 0.0044 | 0.045 | 1.87 |
| Cc1cn2nc(-c3cc(=O)n4cc(N5C[C@H](C)N[C@@H](C)C5)cc(C)c4n3)ccc2n1 [Example 38, 7-[(3S,5S)-3,5-dimethylpiperazin-1-yl]-9-methyl-2-(2-methylimidazo[1,2-b]pyridazin-6-yl)pyrido[1,2-a]pyrimidin-4-one] | 0.0003 | 0.0031 | 1.85 |
| CC[C@@H]1CN(c2ccc3nc(-c4ccc5nc(C)cn5n4)cc(=O)n3c2)CCN1 [Example 39, 7-[(3R)-3-ethylpiperazin-1-yl]-2-(2-methylimidazo[1,2-b]pyridazin-6-yl)pyrido[1,2-a]pyrimidin-4-one] | 0.0009 | 0.0158 | 1.81 |
